Reference: patent US6514997B2, “Antipicornaviral compounds and compositions, their pharmaceutical uses, and materials for their synthesis” (Agouron Pharmaceuticals, Inc., priority 1999, dated 2003)

Experiments:
[1] = biological target: T1, Recombinant rhinovirus 3C protease, serotype 14 (Human rhinovirus 14, UniProt P03303); experiment: Inhibition of rhinovirus 3C protease (FRET assay, kobs/[I]), serotype 14; type: biochemical; conditions: pH 7.6; HRV-14; read-out: kobs/[I] (3C protease inhibition activity)
T1 construct: Recombinant rhinovirus 3C proteases; made in house
T1 sequence (P03303 1538-1719): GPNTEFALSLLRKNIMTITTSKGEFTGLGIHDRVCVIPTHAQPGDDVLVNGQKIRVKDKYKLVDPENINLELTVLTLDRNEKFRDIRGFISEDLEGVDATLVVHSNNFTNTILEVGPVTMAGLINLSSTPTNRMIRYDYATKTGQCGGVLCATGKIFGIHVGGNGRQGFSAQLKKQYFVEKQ
Method in brief: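 Enzyme-start FRET assay with ~1 μM DABCYL/EDANS peptide substrate and 50-100 nM recombinant protease in 50 mM tris pH 7.6, 1 mM EDTA, 2% DMSO. Cleavage followed as fluorescence increase; kobs/[I] derived from progress curves.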

[2] = test system: HRV-14; experiment: Antirhinoviral H1-HeLa cell culture assay (XTT cell protection, EC50), HRV-14; type: cell-based, human rhinovirus (HRV) serotype-14 in H1-HeLa cells; conditions: Rhinovirus B, HRV14, H1-HeLa; HRV-14; read-out: EC50
Method in brief: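 H1-HeLa cells were infected with HRV-14 at m.o.i. 0.13, or mock-infected, and incubated with compound for two days. Cell protection was read by XTT/PMS formazan absorbance at 450/650 nm to give EC50. CC50 came from mock-infected cells, and TI = CC50/EC50.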

[3] = Cytotoxicity (CC50) in mock-infected H1-HeLa cells, XTT dye reduction; type: cell-based, human; conditions: human, H1-HeLa cells; for CC50 at 1 day: line of CVB3
Method in brief: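 H1-HeLa cells mock-infected, read by XTT/PMS formazan at 450/650 nm.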

[4] = test system: Coxsackievirus type A-21 (CAV-21); experiment: Anticoxsackieviral cell culture assay (XTT, EC50), CAV-21; type: cell-based, coxsackievirus A-21 in H1-HeLa cells; conditions: Coxsackievirus; CAV-21; read-out: EC50
Protocol: (§1) Anticoxsackieviral Cell Culture Assay:
(§2) Coxsackievirus types A-21 (CAV-21) and B3 (CVB3) were purchased from American Type Culture Collection (ATCC, Rockville, Md.). Virus stocks were propagated and antiviral assays were performed in H1-HeLa cells (ATCC). Cells were grown in minimal essential medium with 10% fetal bovine serum (Life Technologies, Gaithersburg, Md.). The ability of the compounds of this invention to protect cells against either CAV-21 or CVB3 infection was measured by the XTT dye reduction method. This method is described in Weislow et al., J. Natl. Cancer Inst. (1989), vol. 81, 577-586. H1-HeLa cells were infected with CAV-21 or CVB3 at a multiplicity of infection (m.o.i.) of 0.025 or 0.075, respectively, or mock-infected with medium only. H1-HeLa cells were plated at 4×10^4 cells per well in a 96-well plate and incubated with appropriate concentrations of the test compound. One day (CVB3) or two days (CAV-21) later, XTT/PMS was added to test plates and the amount of formazan produced was quantified spectrophotometrically at 450/650 nm. […] The therapeutic index (TI) was calculated by dividing the CC50 by the EC50.

[5] = test system: Coxsackievirus type B3 (CVB3); experiment: Anticoxsackieviral cell culture assay (XTT, EC50), CVB3; type: cell-based, coxsackievirus B3 in H1-HeLa cells; conditions: CVB3; read-out: EC50
Protocol: as §1, §2

[6] = test system: Echovirus type 11 (ECHO 11); experiment: Anti-echoviral cell culture assay (XTT, EC50), ECHO 11; type: cell-based, echovirus 11 in MRC-5 cells; conditions: Enterovirus B; ECHO-11; read-out: EC50
Protocol: (§3) Anti-Echoviral and Anti-Enteroviral Cell Culture Assays
(§4) Echovirus type 11 (ECHO 11) was purchased from ATCC (Rockville, Md.). Virus stocks were propagated and antiviral assays were performed in MRC-5 cells (ATCC). Cells were grown in minimal essential medium with 10% fetal bovine serum (Life Technologies, Gaithersburg, Md.). The ability of the compounds of this invention to protect cells against ECHO 11 infection was measured by the XTT dye reduction method (Weislow et al., J. Natl. Cancer Inst. (1989), vol. 81, 577-586). MRC-5 cells were infected with ECHO 11 at an m.o.i. of 0.003 or 0.004, respectively, or mock-infected with medium only. Infected or uninfected cells were added at 1×10^4 cells per well and incubated with appropriate concentrations of compound. Four days later, XTT/PMS was added to test plates, and the amount of formazan produced was quantified spectrophotometrically at 450/650 nm. […] The therapeutic index (TI) was calculated by dividing the CC50 by the EC50. Activity of the compounds against enterovirus type 70 (EV 70) may be measured by the same assay as described above in this section. Enterovirus type 70 (EV 70) may be obtained from the American Type Culture Collection ATCC (Rockville, Md.).

[7] = test system: enterovirus type 70 (EV 70); experiment: Anti-enteroviral cell culture assay (XTT, EC50), EV 70; type: cell-based, enterovirus 70 in MRC-5 cells; conditions: Enterovirus D; ENT-70
Protocol: as §3, §4

[8] = Cytotoxicity (CC50) in uninfected MRC-5 cells, XTT dye reduction; type: cell-based, human; conditions: human, MRC-5 cells, uninfected (mock-infected); line of ECHO-11
Protocol: as §4

[9] = test system: MRC-5 cells; experiment: as above; type: cell-based, human; conditions: line of ENT-70
Protocol: as §4

[10] = uninfected (mock-infected), line of CAV-21

kinact/KI [1] [M⁻¹ s⁻¹] | EC50 [2] [µM] | EC50 [4] [µM] | EC50 [5] [µM] | EC50 [6] [µM] | EC50 [7] [µM] | SMILES | CC50 at 2 days ([3]; mock-infected, line of HRV-14) [µM] | CC50 at 2 days [3, 10] [µM] | CC50 at 1 day ([3]; uninfected (mock-infected)) [µM] | CC50 at 4 days [8] [µM] | CC50 [9] [µM]
114000 | 0.033 | 1.48 | 0.539 | 0.16 | 0.012 | CCOC(=O)/C=C/[C@H](CCC(N)=O)NC(=O)[C@H](Cc1ccccc1)n1cccc(NC(=O)OCc2ccccc2)c1=O [Compound 1, trans-(2′S,4S)-4-[2′-(3″-Benzyloxycarbonylamino-2″-oxo-2″H-pyridin-1″-yl)-3′-phenylpropionylamino]-6-carbamoylhex-2-enoic Acid Ethyl Ester] | 50.1 | > 10 | > 10 | > 10 | > 10
329000 | 0.016 | 1.39 | 0.577 | 0.054 | 0.018 | CCOC(=O)/C=C\[C@H](CCC(N)=O)NC(=O)[C@H](Cc1ccccc1)n1cccc(NC(=O)c2cc(C)on2)c1=O [Compound 5, trans-(2′S,4S)-6-Carbamoyl-4-(2′-{3″-[(5′″-methylisoxazole-3′″-carbonyl)amino]-2″-oxo-2″H-pyridin-1″-yl}-3′-phenylpropionylamino)hex-2-enoic Acid Ethyl Ester] | > 10 | > 10 | > 10 | > 10 | > 10
37400 | 0.034 | 4.68 | 2.5 | 0.346 | 0.061 | CCOC(=O)/C=C/[C@H](CCC(N)=O)NC(=O)[C@H](Cc1ccccc1)n1cccc(NC(=O)C2CCCC2)c1=O [Compound 6, trans-(2′S,4S)-6-Carbamoyl-4-{2′-[3″-cyclopentanecarbonylamino-2″-oxo-2″H-pyridin-1″-yl]-3′-phenylpropionylamino}hex-2-enoic Acid Ethyl Ester] | > 10 | > 10 | > 10 | > 10 | > 10
